Test results as given in paper PMC9359617 (Nature structural & molecular biology, 2022).
Where two headings read alike, the source gives them in different places.

Columns and labels:
CaChs2 [1] = molecular target: T1, CaChs2 (Candida albicans, UniProt P30572); assay: CaChs2 activity assay; assay type: biochemical; settings: purified recombinant CaChs2; formation of water-insoluble chitin polymers from UDP-GlcNAc
T1 sequence (P30572 1-1009): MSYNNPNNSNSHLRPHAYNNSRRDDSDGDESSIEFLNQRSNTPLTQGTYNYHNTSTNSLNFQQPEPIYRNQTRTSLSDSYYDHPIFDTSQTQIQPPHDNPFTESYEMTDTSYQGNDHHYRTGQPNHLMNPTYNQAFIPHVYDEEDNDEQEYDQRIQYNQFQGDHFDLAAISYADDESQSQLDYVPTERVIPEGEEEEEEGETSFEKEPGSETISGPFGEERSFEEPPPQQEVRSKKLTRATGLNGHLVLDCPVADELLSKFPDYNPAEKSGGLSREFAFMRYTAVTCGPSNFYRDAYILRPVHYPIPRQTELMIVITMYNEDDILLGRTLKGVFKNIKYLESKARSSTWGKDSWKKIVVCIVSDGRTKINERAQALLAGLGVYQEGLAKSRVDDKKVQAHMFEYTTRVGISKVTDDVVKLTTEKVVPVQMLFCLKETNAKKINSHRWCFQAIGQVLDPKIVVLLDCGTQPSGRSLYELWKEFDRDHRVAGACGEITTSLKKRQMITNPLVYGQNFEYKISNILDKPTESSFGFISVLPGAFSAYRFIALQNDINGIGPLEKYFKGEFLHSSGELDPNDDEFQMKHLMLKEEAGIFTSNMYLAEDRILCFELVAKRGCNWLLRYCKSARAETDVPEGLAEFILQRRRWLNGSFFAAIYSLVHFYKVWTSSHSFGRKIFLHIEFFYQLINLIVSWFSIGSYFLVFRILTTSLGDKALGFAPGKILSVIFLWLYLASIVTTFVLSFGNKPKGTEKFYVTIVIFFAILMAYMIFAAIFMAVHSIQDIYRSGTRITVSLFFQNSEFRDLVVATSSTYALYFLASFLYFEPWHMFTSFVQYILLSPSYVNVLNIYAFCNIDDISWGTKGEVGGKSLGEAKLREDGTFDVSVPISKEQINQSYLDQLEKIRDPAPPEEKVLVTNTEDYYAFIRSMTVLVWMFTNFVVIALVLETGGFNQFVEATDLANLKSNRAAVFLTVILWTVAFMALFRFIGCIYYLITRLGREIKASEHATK

CaChs2 [2] = molecular target: T1, CaChs2; assay: CaChs2 inhibition assay; assay type: biochemical
CaChs2 WT = CaChs2 WT (Candida albicans, UniProt P30572); assay: Isothermal titration calorimetry, CaChs2 WT; assay type: binding
CaChs2 W647A = assay: Isothermal titration calorimetry, CaChs2 W647A; assay type: binding, Candida albicans; settings: ITC
CaChs2 Q643A = CaChs2 Q643A (Candida albicans, UniProt P30572, Q643A); assay: Isothermal titration calorimetry, CaChs2 Q643A; assay type: binding; settings: Q643A mutant, ITC
C. albicans = settings: against C. albicans; lower end printed as < 0.5; cited from earlier work
CaChs2 T631A = assay: CaChs2 inhibition assay, T631A mutant; assay type: biochemical, Candida albicans; settings: alanine mutation of T631
cryo-EM structure = molecular target: the molecule itself; assay: cryo-EM structure

CC(=O)N[C@H]1[C@@H](OP(=O)(O)OP(=O)(O)OC[C@H]2O[C@@H](n3ccc(=O)[nH]c3=O)[C@H](O)[C@@H]2O)O[C@H](CO)[C@@H](O)[C@@H]1O [UDP-GlcNAc]
Km (CaChs2 [1]): 6 ± 0.7 mM | kcat (CaChs2 [1]): 8.6 ± 2.7 min−[1]

C[C@@H]([C@H](N)C(=O)N[C@H](C(=O)O)[C@H]1O[C@@H](n2ccc(=O)[nH]c2=O)[C@H](O)[C@@H]1O)[C@H](O)c1ccc(O)cn1 [nikkomycin Z]
Ki (CaChs2 [2]): 1500 ± 500 nM | difference between Ki of the inhibitor and Km of UDP-GlcNAc (CaChs2 [2]; affinity of nikkomycin Z to CaChs2 compared with UDP-GlcNAc): three orders of magnitude | Kd (CaChs2 WT): ~190 nM | reduction of affinity to nikkomycin Z, mutant vs WT (CaChs2 W647A): about 18 fold | effect of the mutation on affinity to nikkomycin Z (CaChs2 Q643A): only moderately affects the affinity | MIC80 (C. albicans): 0.5 to 32 µg/mL

NC(=O)OC[C@H](O)[C@@H](O)[C@H](N)C(=O)N[C@H](C(=O)O)[C@H]1O[C@@H](n2cc(C(=O)O)c(=O)[nH]c2=O)[C@H](O)[C@@H]1O [polyoxin D]
Ki (CaChs2 [2]; purified CaChs2): 3200 ± 1400 nM | decrease of affinity for polyoxin D, mutant vs WT (CaChs2 T631A): about threefold

B1: Chs2 from Candida albicans (CaChs2), wild type (enzyme, UniProt P30572 1-1009, looked up)
chain: MSYNNPNNSNSHLRPHAYNNSRRDDSDGDESSIEFLNQRSNTPLTQGTYNYHNTSTNSLNFQQPEPIYRNQTRTSLSDSYYDHPIFDTSQTQIQPPHDNPFTESYEMTDTSYQGNDHHYRTGQPNHLMNPTYNQAFIPHVYDEEDNDEQEYDQRIQYNQFQGDHFDLAAISYADDESQSQLDYVPTERVIPEGEEEEEEGETSFEKEPGSETISGPFGEERSFEEPPPQQEVRSKKLTRATGLNGHLVLDCPVADELLSKFPDYNPAEKSGGLSREFAFMRYTAVTCGPSNFYRDAYILRPVHYPIPRQTELMIVITMYNEDDILLGRTLKGVFKNIKYLESKARSSTWGKDSWKKIVVCIVSDGRTKINERAQALLAGLGVYQEGLAKSRVDDKKVQAHMFEYTTRVGISKVTDDVVKLTTEKVVPVQMLFCLKETNAKKINSHRWCFQAIGQVLDPKIVVLLDCGTQPSGRSLYELWKEFDRDHRVAGACGEITTSLKKRQMITNPLVYGQNFEYKISNILDKPTESSFGFISVLPGAFSAYRFIALQNDINGIGPLEKYFKGEFLHSSGELDPNDDEFQMKHLMLKEEAGIFTSNMYLAEDRILCFELVAKRGCNWLLRYCKSARAETDVPEGLAEFILQRRRWLNGSFFAAIYSLVHFYKVWTSSHSFGRKIFLHIEFFYQLINLIVSWFSIGSYFLVFRILTTSLGDKALGFAPGKILSVIFLWLYLASIVTTFVLSFGNKPKGTEKFYVTIVIFFAILMAYMIFAAIFMAVHSIQDIYRSGTRITVSLFFQNSEFRDLVVATSSTYALYFLASFLYFEPWHMFTSFVQYILLSPSYVNVLNIYAFCNIDDISWGTKGEVGGKSLGEAKLREDGTFDVSVPISKEQINQSYLDQLEKIRDPAPPEEKVLVTNTEDYYAFIRSMTVLVWMFTNFVVIALVLETGGFNQFVEATDLANLKSNRAAVFLTVILWTVAFMALFRFIGCIYYLITRLGREIKASEHATK
stoichiometry N (cryo-EM structure): 2
